Data on 17 compounds can be found in US20250215029A1 (Recludix Pharma, Inc., priority 2022, published 2025).

A value given as a limit tells only on which side of the number the result lay.

In the first test the target is T1, pY705-STAT3 in PBMC (Homo sapiens, UniProt P40763).
T1 construct: Cryopreserved Peripheral Blood Mononuclear Cells (PBMC) are from AllCells; host or cells: cryopreserved PBMC
T1 sequence (P40763 whole entry): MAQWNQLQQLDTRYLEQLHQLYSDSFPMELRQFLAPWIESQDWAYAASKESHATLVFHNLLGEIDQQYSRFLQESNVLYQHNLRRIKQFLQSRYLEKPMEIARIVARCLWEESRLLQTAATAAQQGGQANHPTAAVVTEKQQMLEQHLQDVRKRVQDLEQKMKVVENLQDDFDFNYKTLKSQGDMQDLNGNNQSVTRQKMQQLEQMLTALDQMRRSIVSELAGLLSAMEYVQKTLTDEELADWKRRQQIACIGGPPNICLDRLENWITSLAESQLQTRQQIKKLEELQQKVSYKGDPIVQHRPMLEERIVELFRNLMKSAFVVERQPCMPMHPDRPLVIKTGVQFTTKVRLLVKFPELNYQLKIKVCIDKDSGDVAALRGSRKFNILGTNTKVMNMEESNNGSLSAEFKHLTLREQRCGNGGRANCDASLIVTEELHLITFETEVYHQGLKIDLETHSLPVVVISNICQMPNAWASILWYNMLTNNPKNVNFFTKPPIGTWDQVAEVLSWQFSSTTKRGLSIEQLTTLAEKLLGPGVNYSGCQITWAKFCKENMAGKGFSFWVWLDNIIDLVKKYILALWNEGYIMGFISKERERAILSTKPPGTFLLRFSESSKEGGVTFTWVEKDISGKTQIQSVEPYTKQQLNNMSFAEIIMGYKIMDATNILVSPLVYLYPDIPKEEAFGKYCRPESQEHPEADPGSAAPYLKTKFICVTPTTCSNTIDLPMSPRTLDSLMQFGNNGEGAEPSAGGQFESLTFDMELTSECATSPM
Nature of the test: MSD-pSTAT-PBMC Assay (pSTAT3, IL-6 stimulated). It counts as cell-based. The note with it: PBMC, compound 3 hrs, then 10 ng/mL IL-6 for 10 min; Table 115; read-out: STAT3. In outline: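 MSD electrochemiluminescence read-out: total STAT captured, probed with anti-pY641-STAT6 or anti-pY705-STAT3. Human PBMC, 3 h compound pretreatment, 10 min stimulation (IL-4 1 ng/mL or IL-6 10 ng/mL). Unstimulated signal subtracted, DMSO-normalized, variable-slope IC50.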
In the case of `CCCOC(=O)[C@H](C)NP(=O)(Cc1ccc2sc(C(=O)N[C@H]3CCC[C@H]4CC[C@@H](C(=O)N5CC(c6c(OC)ccnc6C(F)F)C5)N4C3=O)cc2c1)Oc1ccccc1` (stereo partly drawn) [Compound 990, propyl (((2-(((3S,6S, 9aS)-3-(3-(2-(difluoromethyl)-4-methoxypyridin-3-yl)azetidine-1-carbonyl)-5-oxooctahydro-1H-pyrrolo[1,2-a]azepin-6-yl)carbamoyl)benzo [b]thiophen-5-yl)methyl)(phenoxy)phosphoryl)-L-alaninate], the IC50 was more than 3 µM. Same read-out and setting: under `CCCOC(=O)[C@H](C)NP(=O)(Cc1ccc2sc(C(=O)N[C@H]3CC[C@H](C)C[C@H]4CC[C@@H](C(=O)N5CC(c6cnccc6F)C5)N4C3=O)cc2c1)Oc1ccccc1` (stereo partly drawn) [Compound 993, propyl (((2-(((3S,6S,9S,10aR)-3-(3-(4-fluoropyridin-3-yl)azetidine-1-carbonyl)-9-methyl-5-oxodecahydropyrrolo [1,2-a]azocin-6-yl)carbamoyl)benzo [b]thiophen-5-yl)methyl)(phenoxy)phosphoryl)-L-alaninate] stands less than 0.1 µM; under `CCCOC(=O)[C@H](C)NP(=O)(Oc1ccccc1)[C@@H](F)c1ccc2sc(C(=O)N[C@H]3CCC[C@H]4CC[C@@H](C(=O)N5CC(c6cnccc6F)C5)N4C3=O)cc2c1` (stereo partly drawn) [Compound 994, propyl (((R)-fluoro(2-(((3S,6S,9aS)-3-(3-(4-fluoropyridin-3-yl)azetidine-1-carbonyl)-5-oxooctahydro-1H-pyrrolo[1,2-a]azepin-6-yl)carbamoyl)benzo [b]thiophen-5-yl)methyl)(phenoxy)phosphoryl)-L-alaninate], 0.1 to 1 µM; under `CCCOC(=O)[C@H](C)NP(=O)(Oc1ccccc1)C(F)c1ccc2sc(C(=O)N[C@H]3CCCC[C@H]4CC[C@@H](C(=O)N5CC(OCCOC)(c6cccnc6)C5)N4C3=O)cc2c1` (stereo partly drawn) [Compound 995, propyl ((fluoro(2-(((3S,6S,10aS)-3-(3-(2-methoxyethoxy)-3-(pyridin-3-yl)azetidine-1-carbonyl)-5-oxodecahydropyrrolo [1,2-a]azocin-6-yl)carbamoyl)benzo [b]thiophen-5-yl)methyl)(phenoxy)phosphoryl)-L-alaninate], less than 0.1 µM. Same read-out and setting: under `CCCOC(=O)[C@H](C)NP(=O)(Cc1ccc2sc(C(=O)N[C@H]3CCC[C@H]4CC[C@@H](C(=O)N5CC(c6cnccc6OC(F)F)C5)N4C3=O)cc2c1)Oc1ccccc1` (stereo partly drawn) [Compound 996, propyl (((2-(((3S,6S,9aS)-3-(3-(4-(difluoromethoxy)pyridin-3-yl)azetidine-1-carbonyl)-5-oxooctahydro-1H-pyrrolo[1,2-a]azepin-6-yl)carbamoyl)benzo [b]thiophen-5-yl)methyl)(phenoxy) )phosphoryl)-L-alaninate] stands 0.1 to 1 µM.

Turning to `CC(C)(C)C(=O)SCCOP(=O)(OCCSC(=O)C(C)(C)C)C(F)(F)c1ccc2sc(C(=O)N[C@H]3CCC[C@H]4CC[C@@H](C(=O)NCc5cnc6[nH]cnc6c5)N4C3=O)cc2c1` [Compound 1002, S,S′-(((((2-(((3S,6S,9aS)-3-(((3H-imidazo[4,5-b]pyridin-6-yl)methyl)carbamoyl)-5-oxooctahydro-1H-pyrrolo[1,2-a]azepin-6-yl)carbamoyl)benzo [b]thiophen-5-yl)difluoromethyl)phosphoryl)bis(oxy))bis(ethane-2,1-diyl)) bis(2,2-dimethyl-propanethioate)], the IC50 was less than 0.1 µM. Same read-out and setting: under `CCCCOC(=O)[C@@H]1CCCN1P(=O)(Cc1ccc2sc(C(=O)N[C@H]3CCC[C@H]4CC[C@@H](C(=O)N5CC(c6cccnc6)C5)N4C3=O)cc2c1)Oc1ccccc1` (stereo partly drawn) [Compound 1003, butyl (((2-(((3S,6S,9aS)-5-oxo-3-(3-(pyridin-3-yl)azetidine-1-carbonyl)octahydro-1H-pyrrolo[1,2-a]azepin-6-yl)carbamoyl)benzo [b]thiophen-5-yl)methyl)(phenoxy)phosphoryl)-L-prolinate] stands 1 to 3 µM; under `CC(C)(C)C(=O)SCCOP(=O)(OCCSC(=O)C(C)(C)C)C(F)(F)c1ccc2sc(C(=O)N[C@H]3CCCC[C@H]4CC[C@@H](C(=O)NCc5cnc6[nH]cnc6c5)N4C3=O)cc2c1` [Compound 1005, S,S′-(((((2-(((3S,6S,10aS)-3-(((3H-imidazo[4,5-b]pyridin-6-yl)methyl)carbamoyl)-5-oxodecahydropyrrolo [1,2-a]azocin-6-yl)carbamoyl)benzo [b]thiophen-5-yl)difluoromethyl)phosphoryl)bis(oxy))bis(ethane-2,1-diyl)) bis(2,2-dimethyl-propanethioate)], less than 0.1 µM. On the same count and under the same terms, under `O=C(Cc1ccccc1)SCCOP(=O)(OCCSC(=O)Cc1ccccc1)C(F)(F)c1ccc2sc(C(=O)N[C@H]3CCC[C@H]4CC[C@@H](C(=O)N5CC(c6cccnc6)C5)N4C3=O)cc2c1` [Compound 1006, S,S′-((((difluoro(2-(((3S,6S,9aS)-5-oxo-3-(3-(pyridin-3-yl)azetidine-1-carbonyl)octahydro-1H-pyrrolo[1,2-a]azepin-6-yl)carbamoyl)benzo [b]thiophen-5-yl)methyl)phosphoryl)bis(oxy))bis(ethane-2,1-diyl)) bis(2-phenylethanethioate)] stands less than 0.1 µM. Turning to `CN=S(C)(=O)CC1(OC)CN(C(=O)C2CCC3CCCC(NC(=O)c4cc5cc(C(F)(F)P(=O)(OCCSC(=O)C(C)(C)C)OCCSC(=O)C(C)(C)C)ccc5s4)C(=O)N32)C1` [Compound 1015, S,S′-(((((2-(((3S,6S,9aS)-3-(3-((N,S-dimethyl-sulfonimidoyl)methyl)-3-methoxyazetidine-1-carbonyl)-5-oxooctahydro-1H-pyrrolo[1,2-a]azepin-6-yl)carbamoyl)benzo [b]thiophen-5-yl)difluoromethyl)phosphoryl)bis(oxy))bis(ethane-2,1-diyl)) bis(2,2-dimethyl-propanethioate)], the IC50 was less than 0.1 µM. The same measure, in the same setting: as for `CC[C@@H](C)OC(=O)[C@H](C)NP(=O)(Cc1ccc2sc(C(=O)N[C@H]3CCC[C@H]4CC[C@@H](C(=O)N5CC(c6cccnc6)C5)N4C3=O)cc2c1)Oc1ccccc1` (stereo partly drawn) [Compound 1016, (R)-sec-butyl (((2-(((3S,6S,9aS)-5-oxo-3-(3-(pyridin-3-yl)azetidine-1-carbonyl)octahydro-1H-pyrrolo[1,2-a]azepin-6-yl)carbamoyl)benzo [b]thiophen-5-yl)methyl)(phenoxy)phosphoryl)-L-alaninate], the figure is 0.1 to 1 µM; as for `CCCOC(=O)[C@H](COC)NP(=O)(Cc1ccc2sc(C(=O)N[C@H]3CCC[C@H]4CC[C@@H](C(=O)N5CC(c6cnccc6N(C)C)C5)N4C3=O)cc2c1)Oc1ccccc1` (stereo partly drawn) [Compound 1017, propyl N-(((2-(((3S,6S,9aS)-3-(3-(4-(dimethylamino)pyridin-3-yl)azetidine-1-carbonyl)-5-oxooctahydro-1H-pyrrolo[1,2-a]azepin-6-yl)carbamoyl)benzo [b]thiophen-5-yl)methyl)(phenoxy)phosphoryl)-O-methyl-L-serinate], less than 0.1 µM. On the same count and under the same terms, as for `CCCOC(=O)[C@H](C)NP(=O)(Oc1ccccc1)[C@H](F)c1ccc2sc(C(=O)N[C@H]3CCC[C@H]4CC[C@@H](C(=O)N5CC(c6cncnc6N6CC[C@H]6COC)C5)N4C3=O)cc2c1` (stereo partly drawn) [Compound 1018, propyl (((S)-fluoro(2-(((3S,6S,9aS)-3-(3-(4-((S)-2-(methoxymethyl)azetidin-1-yl)pyrimidin-5-yl)azetidine-1-carbonyl)-5-oxooctahydro-1H-pyrrolo[1,2-a]azepin-6-yl)carbamoyl)benzo [b]thiophen-5-yl)methyl)(phenoxy)phosphoryl)-L-alaninate], the figure is less than 0.1 µM; as for `CCCOC(=O)[C@H](C)NP(=O)(Cc1ccc2sc(C(=O)N[C@H]3CCC[C@H]4CC[C@@H](C(=O)N5CC(c6cncnc6N6CCC6)C5)N4C3=O)cc2c1)Oc1ccccc1` (stereo partly drawn) [Compound 1019, propyl (((2-(((3S,6S,9aS)-3-(3-(4-(azetidin-1-yl)pyrimidin-5-yl)azetidine-1-carbonyl)-5-oxooctahydro-1H-pyrrolo[1,2-a]azepin-6-yl)carbamoyl)benzo [b]thiophen-5-yl)methyl)(phenoxy)phosphoryl)-L-alaninate], less than 0.1 µM; as for `CCCOC(=O)[C@H](C)NP(=O)(Oc1ccccc1)C(F)c1ccc2sc(C(=O)N[C@H]3CCCC[C@H]4CC[C@@H](C(=O)N5CC(NCC(F)F)(c6ccccn6)C5)N4C3=O)cc2c1` (stereo partly drawn) [Compound 1020, propyl (((2-(((3S,6S,10aS)-3-(3-((2,2-difluoroethyl)amino)-3-(pyridin-2-yl)azetidine-1-carbonyl)-5-oxodecahydropyrrolo [1,2-a]azocin-6-yl)carbamoyl)benzo [b]thiophen-5-yl)fluoromethyl) (phenoxy)phosphoryl)-L-alaninate], less than 0.1 µM.

Still in this test, the particulars now being: STAT3, PBMC, compound 3 hrs, then 10 ng/mL IL-6 for 10 min; Table 115.
Consider `CCCOC(=O)[C@H](C)NP(=O)(Cc1ccc2sc(C(=O)N[C@H]3CCC[C@H]4CC[C@@H](C(=O)N5CC(c6cnc(C(F)F)cc6OC)C5)N4C3=O)cc2c1)Oc1ccccc1` (stereo partly drawn) [Compound 991, propyl (((2-(((3S,6S,9aS)-3-(3-(6-(difluoromethyl)-4-methoxypyridin-3-yl)azetidine-1-carbonyl)-5-oxooctahydro-1H-pyrrolo[1,2-a]azepin-6-yl)carbamoyl)benzo [b]thiophen-5-yl)methyl)(phenoxy)phosphoryl)-L-alaninate], for which the IC50 is more than 3 µM. Same read-out and setting: as for `CCCCOC(=O)[C@H](C)NP(=O)(Cc1ccc2sc(C(=O)N[C@H]3CCC[C@H]4CC[C@@H](C(=O)N5CC(c6cccnc6)C5)N4C3=O)cc2c1)Oc1cccc2ccccc12` (stereo partly drawn) [Compound 1004, butyl ((naphthalen-1-yloxy)((2-(((3S,6S,9aS)-5-oxo-3-(3-(pyridin-3-yl)azetidine-1-carbonyl)octahydro-1H-pyrrolo[1,2-a]azepin-6-yl)carbamoyl)benzo [b]thiophen-5-yl)methyl)phosphoryl)-L-alaninate], the figure is 0.1 to 1 µM.
